Reference: US20260041680A1, “METHODS OF TREATING CANCER WITH LONG-ACTING TOPOISOMERASE I INHIBITOR” (priority 2022, published 2026)
Like-named read-outs stand apart in the source and are kept apart here.

Key:
[1] = tested on: H460 human lung cancer xenograft
[2] = tested on: H446 human small cell lung cancer xenograft
[3] = pegamotecan; cited from earlier work
[4] = in vivo, po
[5] = tested on: HT-29 human colon cancer xenograft; test: HT-29 human colon cancer xenograft, antitumor activity and tolerability; assay type: in vivo, nude rat
[6] = tested on: HCT116 human colon cancer xenograft
[7] = tested on: NCI-N87 human gastric cancer xenograft
[8] = tested on: MKN45 human gastric cancer xenograft
[9] = SN-38 formed from CPT-11; evident from high SN-38G/SN-38; cited from earlier work
[10] = tested on: Panc-1 human pancreatic cancer xenograft
[11] = cisplatin IP 5 mg/kg once a week for 2 weeks
[12] = PLX038 200 mg/kg, irinotecan 60 mg/kg, IV once a week for 2 weeks
[13] = irinotecan 60 mg/kg IV once a week for 2 weeks
[14] = PLX038 200 mg/kg IV once a week for 2 weeks
[15] = PLX038 IV 200 mg/kg once a week for 2 weeks

Molecule: N.N.[Cl][Pt][Cl] [cisplatin]
- TGI [1, 11]: 33%
- TGI [2, 11]: 36.1%

Molecule: pegamotecan
- maximum tolerated dose (MTD) [3]: 3.24 g/m^2

Molecule: CNCc1ccc(-c2[nH]c3cc(F)cc4c3c2CCNC4=O)cc1 [rucaparib]
- rucaparib pre-dose (trough) concentrations at steady state [4]: reasonably consistent with prior data

Molecule: CCc1c2c(nc3ccc(OC(=O)N4CCC(N5CCCCC5)CC4)cc13)-c1cc3c(c(=O)n1C2)COC(=O)[C@]3(O)CC [irinotecan]
- tumor growth inhibition (TGI) ([5]; irinotecan 70/50 mg/kg IV once a week for 2 weeks): 45%
- loss in body weight ([5]; irinotecan at 70 mg/kg IV (second dose lowered to 50 mg/kg)): 16%
- tolerability [6, 12]: well tolerated
- TGI [6, 13]: 65.4%
- tolerability [7, 12]: well-tolerated
- TGI [7, 13]: 57.8%
- tolerability [8, 12]: well-tolerated
- TGI [8, 13]: 45.6%
- liver/GI exposure of SN-38 [9]: high

Molecule: Nc1ccn([C@@H]2O[C@H](CO)[C@@H](O)C2(F)F)c(=O)n1 [gemcitabine]
- TGI ([10]; gemcitabine IP 50 mg/kg once a week for 2 weeks): 32.5%

Molecule: O-[7-(tetra-polyethylene glycol ether)-carboxamido-1-cyano-2-heptyl]-N-(10′-methoxy-7′-ethyl-camptothecin)-N-[4′-(diethylcarbamoyl)phenyl)] carbamate [PLX038]
- tumor growth inhibition (TGI) ([5]; PLX038 50 mg/kg IV once a week for 2 weeks): 13%
- tumor growth inhibition (TGI) ([5]; PLX038 100 mg/kg IV once a week for 2 weeks): 35%
- tumor growth inhibition (TGI) [5, 14]: 61%
- TGI [6, 14]: 46.6%
- TGI [1, 15]: 30%
- TGI [7, 14]: 34.4%
- TGI [8, 14]: 59.0%
- TGI [10, 15]: 73.1%
- TGI [2, 15]: 41.0%
